Structures are written as SMILES.

From ChEMBL document CHEMBL1154159, “Didanosine ester prodrugs: synthesis, albumin binding properties and pharmacokinetic studies in rats” (Eur J Med Chem, 2009) come the findings set out here.

A short description of series [1]: Chemical stability in phosphate buffered saline assessed as compound degradation at 0.05 M at pH 7.4 at 5 degC after 1 hr by HPLC. Format: physicochemical. Conditions: buffer, pH 7.4, 1 h.
Series [2] in a line: Chemical stability in phosphate buffered saline assessed as compound degradation at 0.05 M at pH 7.4 at 40 degC after 1 hr by HPLC. Format: physicochemical. Conditions: buffer, pH 7.4, 1 h.
Series [3] can be described thus: Chemical stability in phosphate buffered saline assessed as compound degradation at 0.05 M at pH 7.4 at 5 to 40 degC after 14 days by HPLC. Format: physicochemical. Conditions: buffer, pH 7.4, 336 h.
A short description of series [4]: Chemical stability in phosphate buffered saline assessed as compound degradation at 0.05 M at pH 7.4 at 25 degC after 1 hr by HPLC. Format: physicochemical. The following applies: buffer, pH 7.4, 1 h.
The nature of series [5]: Clearance in Rowet nu/nu rat plasma at 15 mg/kg, iv after 5 mins to 6 hrs. Format: ADME, organism-based. Also on record: dose 15 mg/kg, route intravenous.
A short description of series [6]: AUC (0 to 360 mins) in Rowet nu/nu rat plasma at 15 mg/kg, iv after 5 mins to 6 hrs. Format: ADME, organism-based. Details: time < 6 hr, dose 15 mg/kg, route intravenous.
A short description of series [7]: Clearance in Rowet nu/nu rat plasma at […], iv after 5 mins to 6 hrs. Format: ADME, organism-based.
Series [8] in a line: Half life in rat at 125 mg/kg/hr, iv after 2 hrs. Format: ADME, organism-based. Details: route intravenous. Conditions: in vivo.
The nature of series [9]: AUC (0 to 360 mins) in Rowet nu/nu rat plasma at […], iv after 5 mins to 6 hrs. Details: time < 6 hr, route intravenous. Format: ADME, organism-based.

As for `O=C(O)CCCCCCCCCCC(=O)OC[C@H]1CC[C@@H](n2cnc3c(=O)[nH]cnc32)O1`, the Stability result in [1] is recorded as “Stable”; in [2], “Stable”; in series [3], “Unstable”; in [4], “Stable”.
Regarding `O=C(O)CCCCC(=O)OC[C@H]1CC[C@@H](n2cnc3c(=O)[nH]cnc32)O1`, the Stability result was “Stable” in [1], “Stable” in [2], “Unstable” in series [3] and “Stable” in series [4].
Regarding `O=C(O)CCCCCCCC(=O)OC[C@H]1CC[C@@H](n2cnc3c(=O)[nH]cnc32)O1`, the Stability result in [1] is “Stable”; in [2] it was “Stable”; in series [3] it was “Unstable”; in series [4] it was “Stable”. In series [5], this compound came in with a clearance of 107 mL/min/kg. The compound further had an AUC(0-t) at 6 h in series [6] of 2680 ng·h/mL.
In the case of `O=c1[nH]cnc2c1ncn2[C@H]1CC[C@@H](CO)O1` [DIDANOSINE], the clearance in series [7] was found to be 134 mL/min/kg. In series [8], the half-life is 1 h. The compound further gave an AUC(0-t) at 6 h in [9] of 2100 ng·h/mL.
